Data published in patent publication US20120136057A1, “HYDROXY FATTY ACID COMPOUNDS AND USES THEREOF FOR DISEASE TREATMENT AND DIAGNOSIS” (PHENOMENOME DISCOVERIES INC., priority 2009, published 2012).

Key:
Format in all cases: cell-based, mouse
TNFα mRNA transcript = assay: TNFα mRNA by quantitative real-time PCR in LPS-stimulated RAW macrophage cells; conditions: RAW264.7 cells, 500 uM (0.5 mM) before LPS stimulation
Procedure: Quantitative Real time PCR: RAW264.7 cells were seeded at 1×10^6/well in […] plate the day before the treatment. The following day, the cells were treated with different concentration of hPUCLFA(D046) or 1% FA/DMSO (DMSO) as vehicle control for 4 hours; each treatment was in duplicate; then stimulated with LPS at 1 μg/ml (cat. No. L4391, Sigma) for 20 hours. Total RNA was isolated from cell pellets using Trizol (Cat. No. 15596-018, Invitrogen) as per manufacturer's instruction. The RNA pellets were resuspended in 50 μL of DEPC treated water and stored at −80° C. RNA concentration and purity was determined by spectrophotometry at 260 and 280 nm. […]
The RAW293 mouse macrophage cell model system is commonly used to assess anti-inflammatory activity of compounds. […] RAW293 cells were pretreated with hPULCFA-enriched extract followed by treatment with LPS for 24 hours after which mRNA transcript and protein levels of pro-inflammatory markers including the cytokines tumor necrosis factor alpha (TNFα) and interleukin-1 beta (IL-1β), iNOS as described above, cyclooxygenase 2 (COX2, the enzyme responsible for the production of pro-inflammatory eicosanoids from arachidonic acid) were assessed.

IL-1β = IL-1β protein by ELISA in LPS-stimulated RAW macrophage cells; conditions: RAW293 cells, 0.5 mM before LPS stimulation
Procedure: ELISA for mouse IL-1 beta: Raw cells were treated as described in real time PCR. 50 ul of conditioned medium or 100 ug of cell lysate was used to determine the amount of IL-1 beta as per manufactory's instruction (Cat. No. MLB00B, Quantikine)
(§1) The RAW293 mouse macrophage cell model system is commonly used to assess anti-inflammatory activity of compounds. The cells are treated with lipopolysaccharide which induces a massive inflammatory response, of which compounds can be tested for their ability to protect against. RAW293 cells were pretreated with hPULCFA-enriched extract followed by treatment with LPS for 24 hours after which mRNA transcript and protein levels of pro-inflammatory markers including the cytokines tumor necrosis factor alpha (TNFα) and interleukin-1 beta (IL-1β), iNOS as described above, cyclooxygenase 2 (COX2, the enzyme responsible for the production of pro-inflammatory eicosanoids from arachidonic acid) were assessed.

TNFα = TNFα protein by ELISA in LPS-stimulated RAW macrophage cells; conditions: RAW293 cells, 0.5 mM before LPS stimulation
Procedure: ELISA for mouse TNF alpha: Raw cells were treated as described in real time PCR. Conditioned medium was collected. Cells was briefly washed with ice cold PBS and lysed with lysis buffer (Jerry's recipe); Protein in the cell lysate was quantified using the Bio-Rad Protein Assay (Bio-Rad, Hercules, Calif.). 50 ul of conditioned medium or 100 ug of cell lysate per well was used to determine the amount of TNF alpha as per manufactory's instruction (Cat. No. KMC3011, Invitrogen).
as §1

Compound: CCCC(O)C/C=C\C(O)/C=C\C/C=C\C/C=C\C/C=C\CCCCCCCCC(=O)O (stereo not drawn) [Compound D046-124]
- induction of TNFα transcripts (TNFα mRNA transcript): prevented the induction
- levels of IL-1β in conditioned media (IL-1β): completely blocked
- TNFα protein level in conditioned media (TNFα): prevented the induction
